Marks after values point to notes of the source that are not given here. One block for each compound: values may come before it.
Assays:
[1] = Animal weight and hematocrit in 3LL tumor-bearing mice
Procedure: (§1) Animals are followed by weighing, palpation and measurement of tumor size. […] A positive control compound, for example cyclophosphamide at 170 mg/kg/injection is given every 6 days. Results computed include mean animal weight, tumor size, tumor weight and survival time. For confirmed therapeutic activity, the test composition should be tested in two multi-dose assays. Female C57/BL mice were inoculated with 1×10^6 Lewis Lung carcinoma (3LL) cells subcutaneously in the middle of the back. […] Cyclophosphamide (170 mg/kg given every 6 days subcutaneously beginning on day 3 after tumor cell inoculation) was used as a control. Tumor volumes and animal weights were measured 2×/week and the animals euthanized when the volume of the tumors in the control group reached an average of 2000 mm^3. The ratio (T/C) of the tumor volumes in the treated group (T) to the control group (C) were determined. Terminal cardiac bleeds were obtained and analyzed for red blood cell concentration (hematocrit, HCT).

[2] = Chemical Stability Data for Analogs
[3] = tested on: Lewis Lung carcinoma (3LL) cells; test: In Vivo 3LL Lewis Lung Carcinoma: Primary Tumor Growth; conditions: 3LL s.c. in female C57/BL mice; TM and CHTM 50 mg/kg po by gavage from day after inoculation; cyclophosphamide 170 mg/kg s.c. every 6 days from day 3
Procedure: The tumor model used was 3LL JF in C57BL/6 mice. […] The test compound is administered daily for 11-25 days.
as §1

[4] = After 10 days, Oven to room conditions

Compound: [NH4+].[NH4+].[SH-].[SH-].[S]=[Mo]=[S] [Ammonium, ammonium tetrathiomolybdate]
HCT (hematocrit, red blood cell concentration) ([1]; mouse, in vivo): 35%
MOUSE WEIGHT % of initial ([1]; mouse, in vivo): 93%*
% remaining ([2]; *9 days, different study, Oven to room conditions): *48%
T/C (ratio of tumor volumes in treated group to control group) [3]: 0.59

Compound: Ethylenebis(trimethylammonium)
% remaining [2, 4]: 40%

Compound: C[N+](C)(C)CC1CC1.C[N+](C)(C)CC1CC1.[S]=[Mo](=[S])([S-])[S-] [bis(cyclopropylmethyltrimethylammonium), Tetrathiomolybdate, bis(cyclopropylmethyltrimethyl ammonium)]
% remaining ([2]; 7 days, 74-77% RH, RT): 86%

Compound: C[N+](C)(Cc1ccccc1)c1ccccc1.C[N+](C)(Cc1ccccc1)c1ccccc1.[S]=[Mo](=[S])([S-])[S-] [bis(benzylphenyldimethylammonium), Tetrathiomolybdate, bis(benzylphenyldimethylammonium)]
% remaining ([2]; 7 days, 74-77% RH, RT): 45%

Compound: C[N+](C)(C)CCCCC[N+](C)(C)C [pentane-1,5-bis(trimethylammonium), Tetrathiomolybdate, pentane-1,5-bis(trimethylammonium)]
% remaining [2, 4]: 86%

Compound: O=P1(N(CCCl)CCCl)NCCCO1 (stereo not shown) [Cyclophosphamide]
MOUSE WEIGHT % of initial ([1]; 3LL tumor-bearing female C57/BL mice, same dosing as T/C): 105%
HCT (hematocrit, red blood cell concentration) ([1]; terminal cardiac bleeds, normal is 45%): 40%
T/C (ratio of tumor volumes in treated group to control group) [3]: 0.74

Compound: C=C[N+](C)(C)C.C=C[N+](C)(C)C.[S]=[Mo](=[S])([S-])[S-] [bis(vinyltrimenthyammonium), Tetrathiomolybdate, bis(vinyltrimethyl ammonium)]
% remaining ([2]; 7 days, 74-77% RH, RT): 72%

Compound: CC[N+](C)(CC)CC.CC[N+](C)(CC)CC.[S]=[Mo](=[S])([S-])[S-] [Methyltriethylammonium, Tetrathiomolybdate, bis(triethylmethyl ammonium)]
% remaining [2, 4]: 63%

Compound: C[N+]1(C)CCCC1.C[N+]1(C)CCCC1.[S]=[Mo](=[S])([S-])[S-] [1,1-dimethylpyrrolidinium, Tetrathiomolybdate, bis(1,1-dimethylpyrrolidinium)]
% remaining [2, 4]: 70%

Compound: C[N+](C)(C)Cc1ccccc1.C[N+](C)(C)Cc1ccccc1.[S]=[Mo](=[S])([S-])[S-] [Trimethylbenzylammonium, Tetrathiomolybdate, bis(benzyltrimethylammonium)]
% remaining [2, 4]: 94%

Compound: CCn1cc[n+](C)c1.CCn1cc[n+](C)c1.[S]=[Mo](=[S])([S-])[S-] [1-ethyl-3-methyl-1H-imidazolium, Tetrathiomolybdate, bis(1-ethyl-3-methyl-1H-imidazolium)]
% remaining [2, 4]: 75%

Compound: C[N+](C)(C)CCCC[N+](C)(C)C [butane-1,4-bis(trimethylammonium)]
% remaining [2, 4]: 40%

HCT (hematocrit, red blood cell concentration) ([1]; mouse, in vivo): 35%
MOUSE WEIGHT % of initial ([1]; mouse, in vivo): 103%
% remaining [2, 4]: 62%
Compound: C[N+](C)(C)CCO [Choline, Tetrathiomolybdate, bis(choline)]

Compound: C[N+](C)(C)CCCCCC[N+](C)(C)C.[S]=[Mo](=[S])([S-])[S-] [hexane-1,6-bis(trimethylammonium), Tetrathiomolybdate, hexane-1,6-bis(trimethylammonium)]
% remaining ([2]; 7 days, 74-77% RH, RT): 94%

Compound: CC[N+](CC)(CC)c1ccccc1.CC[N+](CC)(CC)c1ccccc1.[S]=[Mo](=[S])([S-])[S-] [Triethylphenylammonium, Tetrathiomolybdate, bis(triethylphenyl ammonium)]
% remaining [2, 4]: 76%

Compound: C[N+](C)(C)c1ccccc1.C[N+](C)(C)c1ccccc1.[S]=[Mo](=[S])([S-])[S-] [Trimethylphenylammonium, Tetrathiomolybdate, bis(phenyltrimethylammonium)]
% remaining ([2]; 7 days, 74-77% RH, RT): 98%
% remaining [2, 4]: 85%

Compound: Cc1cc[n+](C)cc1 [1,4-dimethylpyridinium, Tetrathiomolybdate, bis(1,4-dimethylpyridinium)]
% remaining [2, 4]: 32%

Source: patent publication US20040019043A1, “Thiomolybdate analogues and uses thereof” (priority 2002, published 2004)
